# Results: patent publication US12258328B2, “6-membered heteroaryl-containing aminopyridine compounds as EGFR inhibitors” (YUHAN CORPORATION, priority 2021, dated 2025)
# pIC50: −log10 of the molar value. Read-outs that look alike come from different tables or passages of the source.
# How the values were obtained:
# EGFR del19/C797S = EGFR del19/C797S (Homo sapiens, UniProt P00533, C797S/DEL746-750); test: Biochemical EGFR kinase assay (Lance Ultra TR-FRET), double mutant del19/C797S
# Procedure, shortened: (§1)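 In this biochemical assay, phosphorylation after a one-hour room-temperature reaction was detected with europium-labelled anti-phosphopeptide antibody at 2 nM final concentration.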
# EGFR wildtype = EGFR wildtype (Homo sapiens, UniProt P00533); test: Biochemical EGFR kinase assay (Lance Ultra TR-FRET), wildtype
# EGFR wildtype, sequence (P00533 25-1210): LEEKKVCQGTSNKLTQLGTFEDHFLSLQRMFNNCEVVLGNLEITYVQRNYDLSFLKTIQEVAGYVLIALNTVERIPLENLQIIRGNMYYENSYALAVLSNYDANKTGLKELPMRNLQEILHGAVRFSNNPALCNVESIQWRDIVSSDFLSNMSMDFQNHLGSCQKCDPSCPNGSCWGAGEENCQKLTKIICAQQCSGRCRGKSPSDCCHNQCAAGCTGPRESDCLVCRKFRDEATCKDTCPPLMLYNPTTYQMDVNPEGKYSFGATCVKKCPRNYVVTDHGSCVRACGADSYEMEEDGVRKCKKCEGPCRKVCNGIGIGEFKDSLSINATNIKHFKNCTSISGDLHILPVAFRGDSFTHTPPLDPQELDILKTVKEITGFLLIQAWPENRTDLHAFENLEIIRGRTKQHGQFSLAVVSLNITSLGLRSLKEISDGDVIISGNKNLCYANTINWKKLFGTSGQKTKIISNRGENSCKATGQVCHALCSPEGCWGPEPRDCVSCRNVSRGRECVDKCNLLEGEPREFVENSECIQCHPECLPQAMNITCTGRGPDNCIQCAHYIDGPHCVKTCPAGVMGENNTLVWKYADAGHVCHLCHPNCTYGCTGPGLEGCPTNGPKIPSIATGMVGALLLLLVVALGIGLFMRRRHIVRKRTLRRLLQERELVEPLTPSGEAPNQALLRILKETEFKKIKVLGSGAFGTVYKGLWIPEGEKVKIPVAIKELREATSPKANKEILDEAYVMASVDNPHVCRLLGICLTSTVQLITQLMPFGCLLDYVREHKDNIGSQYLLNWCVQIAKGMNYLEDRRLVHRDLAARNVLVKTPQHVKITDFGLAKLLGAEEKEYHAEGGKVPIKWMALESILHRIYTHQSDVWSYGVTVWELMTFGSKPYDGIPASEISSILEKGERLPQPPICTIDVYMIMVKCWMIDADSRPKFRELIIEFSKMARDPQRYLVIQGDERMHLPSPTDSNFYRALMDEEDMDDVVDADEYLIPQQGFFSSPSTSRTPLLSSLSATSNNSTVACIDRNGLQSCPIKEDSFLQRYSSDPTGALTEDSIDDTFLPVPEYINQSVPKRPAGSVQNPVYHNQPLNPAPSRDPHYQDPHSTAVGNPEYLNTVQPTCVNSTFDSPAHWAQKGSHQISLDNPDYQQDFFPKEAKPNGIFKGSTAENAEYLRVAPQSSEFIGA
# Procedure, shortened: as §1
# EGFR L858R/C797S = EGFR L858R/C797S (Homo sapiens, UniProt P00533, C797S/L858R); test: Biochemical EGFR kinase assay (Lance Ultra TR-FRET), double mutant L858R/C797S
# EGFR L858R/C797S, sequence (P00533 25-1210 C797S/L858R): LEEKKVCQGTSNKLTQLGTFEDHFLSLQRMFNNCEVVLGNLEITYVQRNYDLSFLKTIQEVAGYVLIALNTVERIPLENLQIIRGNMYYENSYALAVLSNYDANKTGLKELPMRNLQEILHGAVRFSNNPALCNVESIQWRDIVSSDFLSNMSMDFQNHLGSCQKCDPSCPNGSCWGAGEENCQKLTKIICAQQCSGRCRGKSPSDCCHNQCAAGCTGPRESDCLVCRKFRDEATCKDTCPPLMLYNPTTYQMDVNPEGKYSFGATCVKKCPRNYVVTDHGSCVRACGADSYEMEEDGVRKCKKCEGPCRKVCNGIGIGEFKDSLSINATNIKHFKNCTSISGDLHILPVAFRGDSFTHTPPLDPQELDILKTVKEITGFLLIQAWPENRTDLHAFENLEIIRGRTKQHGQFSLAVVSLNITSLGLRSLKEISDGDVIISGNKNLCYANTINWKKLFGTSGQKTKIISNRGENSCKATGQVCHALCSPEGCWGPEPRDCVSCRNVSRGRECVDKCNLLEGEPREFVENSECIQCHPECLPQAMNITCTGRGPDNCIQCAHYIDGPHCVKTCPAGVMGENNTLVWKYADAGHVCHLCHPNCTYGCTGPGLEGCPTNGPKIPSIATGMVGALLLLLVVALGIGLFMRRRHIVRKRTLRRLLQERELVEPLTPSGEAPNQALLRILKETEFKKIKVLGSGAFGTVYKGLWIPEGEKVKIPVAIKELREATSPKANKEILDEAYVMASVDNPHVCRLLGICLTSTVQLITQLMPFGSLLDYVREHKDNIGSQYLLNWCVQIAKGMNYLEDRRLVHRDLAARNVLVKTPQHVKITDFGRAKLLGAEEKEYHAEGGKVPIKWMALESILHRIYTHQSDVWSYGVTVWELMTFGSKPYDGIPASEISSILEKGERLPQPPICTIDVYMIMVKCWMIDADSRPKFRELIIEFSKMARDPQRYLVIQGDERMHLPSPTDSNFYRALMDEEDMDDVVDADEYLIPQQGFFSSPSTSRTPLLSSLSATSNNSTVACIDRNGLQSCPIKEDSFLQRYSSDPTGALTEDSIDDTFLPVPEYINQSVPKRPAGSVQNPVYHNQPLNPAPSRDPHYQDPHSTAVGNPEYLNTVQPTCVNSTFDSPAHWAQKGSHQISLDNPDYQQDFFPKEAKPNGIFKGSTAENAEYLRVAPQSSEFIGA
# Procedure, shortened: as §1
# EGFR L858R/T790M/C797S = EGFR L858R/T790M/C797S (Homo sapiens, UniProt P00533, C797S/L858R/T790M); test: Biochemical EGFR kinase assay (Lance Ultra TR-FRET), triple mutant L858R/T790M/C797S
# EGFR L858R/T790M/C797S, sequence (P00533 25-1210 T790M/C797S/L858R): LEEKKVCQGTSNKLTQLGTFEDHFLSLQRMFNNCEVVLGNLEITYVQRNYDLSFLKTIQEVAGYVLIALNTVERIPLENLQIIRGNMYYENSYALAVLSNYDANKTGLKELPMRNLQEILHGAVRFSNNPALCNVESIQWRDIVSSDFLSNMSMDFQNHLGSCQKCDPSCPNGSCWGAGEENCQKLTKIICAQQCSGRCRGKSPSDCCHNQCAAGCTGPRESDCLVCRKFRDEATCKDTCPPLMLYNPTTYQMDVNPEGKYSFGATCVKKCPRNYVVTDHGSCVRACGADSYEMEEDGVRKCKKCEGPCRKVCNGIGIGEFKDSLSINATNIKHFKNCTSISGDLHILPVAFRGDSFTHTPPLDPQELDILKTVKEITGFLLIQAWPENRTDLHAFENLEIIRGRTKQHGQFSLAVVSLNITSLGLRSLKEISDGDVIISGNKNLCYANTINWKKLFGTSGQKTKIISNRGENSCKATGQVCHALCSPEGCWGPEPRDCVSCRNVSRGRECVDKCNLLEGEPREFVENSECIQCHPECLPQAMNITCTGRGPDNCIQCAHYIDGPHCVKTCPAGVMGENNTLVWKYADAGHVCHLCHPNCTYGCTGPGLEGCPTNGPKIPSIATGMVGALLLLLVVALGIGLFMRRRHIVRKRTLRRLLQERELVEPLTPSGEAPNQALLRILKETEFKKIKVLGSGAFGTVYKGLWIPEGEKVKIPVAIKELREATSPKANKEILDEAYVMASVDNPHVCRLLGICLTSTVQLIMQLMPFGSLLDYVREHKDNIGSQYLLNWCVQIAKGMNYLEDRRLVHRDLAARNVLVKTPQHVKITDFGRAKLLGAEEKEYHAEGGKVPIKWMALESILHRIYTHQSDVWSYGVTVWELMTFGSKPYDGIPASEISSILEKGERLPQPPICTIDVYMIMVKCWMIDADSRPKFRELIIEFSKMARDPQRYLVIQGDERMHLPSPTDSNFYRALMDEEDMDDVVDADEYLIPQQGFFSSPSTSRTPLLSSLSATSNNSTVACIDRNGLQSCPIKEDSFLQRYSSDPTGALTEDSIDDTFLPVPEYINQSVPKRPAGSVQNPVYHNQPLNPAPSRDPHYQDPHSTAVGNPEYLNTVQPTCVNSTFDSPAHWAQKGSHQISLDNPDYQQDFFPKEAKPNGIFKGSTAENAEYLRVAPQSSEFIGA
# Procedure, shortened: as §1
# EGFR del19/T790M/C797S = EGFR del19/T790M/C797S (Homo sapiens, UniProt P00533, C797S/DEL746-750/T790M); test: Biochemical EGFR kinase assay (Lance Ultra TR-FRET), triple mutant del19/T790M/C797S
# EGFR del19/T790M/C797S, sequence (P00533 with tags, fused parts or gaps DEL746-750/T790M/C797S): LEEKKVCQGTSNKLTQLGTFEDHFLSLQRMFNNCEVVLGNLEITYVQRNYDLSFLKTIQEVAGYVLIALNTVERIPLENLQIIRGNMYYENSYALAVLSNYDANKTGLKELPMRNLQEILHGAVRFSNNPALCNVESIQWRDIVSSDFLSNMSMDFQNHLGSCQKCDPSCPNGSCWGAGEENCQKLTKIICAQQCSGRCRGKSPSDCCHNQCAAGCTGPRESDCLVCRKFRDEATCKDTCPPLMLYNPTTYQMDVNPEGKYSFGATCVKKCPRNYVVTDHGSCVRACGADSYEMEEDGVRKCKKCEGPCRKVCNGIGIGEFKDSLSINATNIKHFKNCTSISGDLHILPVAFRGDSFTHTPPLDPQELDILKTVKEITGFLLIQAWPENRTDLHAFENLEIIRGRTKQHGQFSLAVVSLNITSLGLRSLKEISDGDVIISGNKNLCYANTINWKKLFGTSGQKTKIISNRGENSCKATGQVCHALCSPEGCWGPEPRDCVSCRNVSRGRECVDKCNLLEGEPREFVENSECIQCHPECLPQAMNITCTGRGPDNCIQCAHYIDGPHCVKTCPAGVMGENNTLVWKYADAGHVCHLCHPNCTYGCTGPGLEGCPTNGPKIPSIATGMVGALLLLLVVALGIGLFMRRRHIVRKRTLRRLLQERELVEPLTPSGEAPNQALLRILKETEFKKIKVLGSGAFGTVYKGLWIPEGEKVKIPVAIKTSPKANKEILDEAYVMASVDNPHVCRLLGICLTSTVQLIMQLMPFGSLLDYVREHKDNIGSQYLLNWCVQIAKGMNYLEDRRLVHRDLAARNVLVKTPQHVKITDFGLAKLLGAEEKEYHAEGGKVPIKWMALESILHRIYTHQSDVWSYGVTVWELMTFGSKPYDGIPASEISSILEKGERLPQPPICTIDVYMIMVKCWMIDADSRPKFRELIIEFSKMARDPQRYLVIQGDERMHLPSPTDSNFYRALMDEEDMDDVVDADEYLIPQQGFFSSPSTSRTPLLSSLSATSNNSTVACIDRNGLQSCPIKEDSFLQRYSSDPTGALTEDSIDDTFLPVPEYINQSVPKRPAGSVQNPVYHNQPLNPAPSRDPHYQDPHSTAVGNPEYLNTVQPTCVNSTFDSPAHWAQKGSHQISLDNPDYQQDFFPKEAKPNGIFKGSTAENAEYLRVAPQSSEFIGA
# Procedure, shortened: as §1
# [1] = IC50 del19/C797S (nM) 100 μM ATP, 100 μM ATP
# [2] = Km ATP, read-out: IC50 del19/C797S (nM) Km ATP
# [3] = IC50 WT (nM) 100 μM ATP, 100 μM ATP
# [4] = Km ATP, read-out: IC50 L858R/C797S (nM) Km ATP
# [5] = IC50 L858R/T790M/C797S (nM) 100 μM ATP, 100 μM ATP
# [6] = Km ATP, read-out: IC50 L858R/T790M/C797S (nM) Km ATP
# [7] = IC50 del19/T790M/C797S (nM) 100 μM ATP, 100 μM ATP
# [8] = Km ATP, read-out: IC50 del19/T790M/C797S (nM) Km ATP
# [9] = ATP at Km, read-out: IC50 del19/C797S, Km ATP
# [10] = ATP at Km, read-out: IC50 WT, Km ATP
# [11] = ATP at Km, read-out: IC50 L858R/C797S, Km ATP
# [12] = ATP at Km, read-out: IC50 L858R/T790M/C797S, Km ATP
# [13] = ATP at Km, read-out: IC50 del19/T790M/C797S, Km ATP
# [14] = IC50 del19/T790M/C797S, 100 μM ATP
# [15] = IC50 L858R/C797S (nM) 100 μM ATP, 100 μM ATP
# [16] = Km ATP, read-out: IC50 WT (nM) Km ATP
# [17] = IC50 L858R/T790M/C797S, 100 μM ATP
IC50 (EGFR del19/C797S; [1]),IC50 (EGFR del19/C797S; [2]),IC50 (EGFR wildtype; [3]),IC50 (EGFR L858R/C797S; [4]),IC50 (EGFR L858R/T790M/C797S; [5]),IC50 (EGFR L858R/T790M/C797S; [6]),IC50 (EGFR del19/T790M/C797S; [7]),IC50 (EGFR del19/T790M/C797S; [8]),pIC50 (EGFR del19/C797S; [9]),"pIC50 (EGFR del19/C797S; IC50 del19/C797S, 100 μM ATP)",pIC50 (EGFR wildtype; [10]),"pIC50 (EGFR wildtype; IC50 WT, 100 μM ATP)",pIC50 (EGFR L858R/C797S; [11]),"pIC50 (EGFR L858R/C797S; IC50 L858R/C797S, 100 μM ATP)",pIC50 (EGFR L858R/T790M/C797S; [12]),pIC50 (EGFR del19/T790M/C797S; [13]),pIC50 (EGFR del19/T790M/C797S; [14]),IC50 (EGFR L858R/C797S; [15]),IC50 (EGFR wildtype; [16]),pIC50 (EGFR L858R/T790M/C797S; [17]),Structure (SMILES)
,,,,,,,,8.02,7.79,6.86,5.81,7.81,7.20,9.15,9.15,8.47,,,,"C[C@]1(O)CC[C@@H](Nc2cc(Nc3ccnc(-c4cnn(S(=O)(=O)C5CC5)c4)n3)ncc2-c2cccc(CC(F)(F)F)n2)CC1 [Example 293, (1s,4s)-4-((6′-((2-(1-(Cyclopropylsulfonyl)-1H-pyrazol-4-yl)pyrimidin-4-yl)amino)-6-(2,2,2-trifluoroethyl)-[2,3′-bipyridin]-4′-yl)amino)-1-methylcyclohexan-1-ol]"
,,,,,,,,9.40,,8.59,,10.00,,10.00,10.00,,,,,"CN1CCC(Oc2ccc(-c3cnc(Nc4ccnc(-c5cnn(S(=O)(=O)C6CC6)c5)n4)cc3N[C@H]3CC[C@@](C)(O)CC3)nn2)CC1 [Example 269, (1s,4s)-4-((2-((2-(1-(Cyclopropylsulfonyl)-1H-pyrazol-4-yl)pyrimidin-4-yl)amino)-5-(6-((1-methylpiperidin-4-yl)oxy)pyridazin-3-yl)pyridin-4-yl)amino)-1-methylcyclohexan-1-ol]"
,,,,,,,,8.11,7.44,7.67,5.21,7.87,7.33,8.12,8.04,7.60,,,7.76,"CC(C)(O)[C@H]1CC[C@@H](Nc2cc(Nc3ccnc(-c4cnn(S(=O)(=O)C5CC5)c4)n3)ncc2-c2cc(NC3CC(F)(F)C3)ccn2)CC1 [Example 215, 2-((1s,4s)-4-((6′-((2-(1-(Cyclopropylsulfonyl)-1H-pyrazol-4-yl)pyrimidin-4-yl)amino)-4-((3,3-difluorocyclobutyl)amino)-[2,3′-bipyridin]-4′-yl)amino)cyclohexyl)propan-2-ol]"
,,,,,,,,9.70,9.52,9.10,6.93,9.70,9.40,9.52,9.10,9.15,,,9.52,"CC(C)(O)[C@H]1CC[C@@H](Nc2cc(Nc3ccnc(-c4cnn(S(=O)(=O)C5CC5)c4)n3)ncc2-c2ccc(OCCN3CCC3)cn2)CC1 [Example 217, 2-((1s,4s)-4-((5-(2-(Azetidin-1-yl)ethoxy)-6′-((2-(1-(cyclopropylsulfonyl)-1H-pyrazol-4-yl)pyrimidin-4-yl)amino)-[2,3′-bipyridin]-4′-yl)amino)cyclohexyl)propan-2-ol]"
,,,,,,,,,9.70,,6.49,,8.92,,,10.00,,,10.00,"CN(C)C[C@H]1CC[C@@H](Nc2cc(Nc3ccnc(-c4cnn(S(=O)(=O)C5CC5)c4)n3)ncc2-c2ccc(S(C)(=O)=O)cn2)CC1 [Example 159, N^6′-(2-(1-(Cyclopropylsulfonyl)-1H-pyrazol-4-yl)pyrimidin-4-yl)-N^4′-((1s,4s)-4-((dimethylamino)methyl)cyclohexyl)-5-(methylsulfonyl)-[2,3′-bipyridine]-4′,6′-diamine]"

# Further lines, the compound ahead of its results:
Structure (SMILES),IC50 (EGFR del19/C797S; [1]),IC50 (EGFR del19/C797S; [2]),IC50 (EGFR wildtype; [3]),IC50 (EGFR L858R/C797S; [4]),IC50 (EGFR L858R/T790M/C797S; [5]),IC50 (EGFR L858R/T790M/C797S; [6]),IC50 (EGFR del19/T790M/C797S; [7]),IC50 (EGFR del19/T790M/C797S; [8]),pIC50 (EGFR del19/C797S; [9]),"pIC50 (EGFR del19/C797S; IC50 del19/C797S, 100 μM ATP)",pIC50 (EGFR wildtype; [10]),"pIC50 (EGFR wildtype; IC50 WT, 100 μM ATP)",pIC50 (EGFR L858R/C797S; [11]),"pIC50 (EGFR L858R/C797S; IC50 L858R/C797S, 100 μM ATP)",pIC50 (EGFR L858R/T790M/C797S; [12]),pIC50 (EGFR del19/T790M/C797S; [13]),pIC50 (EGFR del19/T790M/C797S; [14]),IC50 (EGFR L858R/C797S; [15]),IC50 (EGFR wildtype; [16]),pIC50 (EGFR L858R/T790M/C797S; [17])
"C[C@]1(O)CC[C@@H](Nc2cc(Nc3ccnc(-c4cnn(S(=O)(=O)C5CC5)c4)n3)ncc2-c2ccccn2)CC1 [Example 35, (1s,4s)-4-((6′-((2-(1-(Cyclopropylsulfonyl)-1H-pyrazol-4-yl)pyrimidin-4-yl)amino)-[2,3′-bipyridin]-4′-yl)amino)-1-methylcyclohexan-1-ol]",0.2 nM,0.3 nM,811 nM,0.3 nM,0.3 nM,0.2 nM,0.3 nM,0.6 nM,,,,,,,,,,,,
"O=S(=O)(C1CC1)n1cc(-c2nccc(Nc3cc(N[C@H]4CC[C@@H](CO)CC4)c(-c4cnc(N5CCC(F)(F)CC5)cn4)cn3)n2)cn1 [Example 70, ((1s,4s)-4-((2-((2-(1-(Cyclopropylsulfonyl)-1H-pyrazol-4-yl)pyrimidin-4-yl)amino)-5-(5-(4,4-difluoropiperidin-1-yl)pyrazin-2-yl)pyridin-4-yl)amino)cyclohexyl)methanol]",13.1 nM,,> 10000 nM,,4.9 nM,,3.9 nM,,,,,,,,,,,81.1 nM,,
"FC(F)Cn1cc(-c2nccc(Nc3cc(N[C@H]4CC[C@@H](F)CC4)c(-c4ccc(N5CCOCC5)cn4)cn3)n2)cn1 [Example 137, N^6′-(2-(1-(2,2-Difluoroethyl)-1H-pyrazol-4-yl)pyrimidin-4-yl)-N^4′-((1s,4s)-4-fluorocyclohexyl)-5-morpholino-[2,3′-bipyridine]-4′,6′-diamine]",,74.4 nM,,6.4 nM,,0.2 nM,,1.1 nM,,,,,,,,,,,272 nM,
"O=S(=O)(C1CC1)n1cc(-c2nccc(Nc3cc(NC4CCC(CO)CC4)c(-c4ccc(N5CCOCC5)cn4)cn3)n2)cn1 (stereo not shown) [Example 57, ((1s,4s)-4-((6′-((2-(1-(Cyclopropylsulfonyl)-1H-pyrazol-4-yl)pyrimidin-4-yl)amino)-5-morpholino-[2,3′-bipyridin]-4′-yl)amino)cyclohexyl)methanol]",1.7 nM,2 nM,636 nM,0.7 nM,1 nM,,1.7 nM,,,,,,,,,,,4.5 nM,4.8 nM,
"CN(C)CCOc1cnc(-c2cnc(Nc3ccnc(-c4cnn(S(=O)(=O)C5CC5)c4)n3)cc2N[C@H]2CC[C@@H](C(C)(C)O)CC2)cn1 [Example 117, 2-((1s,4s)-4-((2-((2-(1-(Cyclopropylsulfonyl)-1H-pyrazol-4-yl)pyrimidin-4-yl)amino)-5-(5-(2-(dimethylamino)ethoxy)pyrazin-2-yl)pyridin-4-yl)amino)cyclohexyl)propan-2-ol]",0.5 nM,0.3 nM,6500 nM,0.2 nM,0.1 nM,0.1 nM,0.4 nM,0.2 nM,,,,,,,,,,0.5 nM,1.9 nM,
"CN1CCC(Oc2cnc(-c3cnc(Nc4ccnc(-c5cnn(S(=O)(=O)C6CC6)c5)n4)cc3N[C@H]3CC[C@@H](C(C)(C)O)CC3)cn2)CC1 [Example 147, 2-((1s,4s)-4-((2-((2-(1-(Cyclopropylsulfonyl)-1H-pyrazol-4-yl)pyrimidin-4-yl)amino)-5-(5-((1-methylpiperidin-4-yl)oxy)pyrazin-2-yl)pyridin-4-yl)amino)cyclohexyl)propan-2-ol]",,0.4 nM,,0.1 nM,,0.1 nM,,0.3 nM,,,,,,,,,,,2.3 nM,
"C[C@]1(O)CC[C@@H](Nc2cc(Nc3ccnc(-c4cnn(S(=O)(=O)C5CC5)c4)n3)ncc2-c2cnc(OC3COC3)cn2)CC1 [Example 150, (1s,4s)-4-((2-((2-(1-(Cyclopropylsulfonyl)-1H-pyrazol-4-yl)pyrimidin-4-yl)amino)-5-(5-(oxetan-3-yloxy)pyrazin-2-yl)pyridin-4-yl)amino)-1-methylcyclohexan-1-ol]",,0.5 nM,,0.4 nM,,0.1 nM,,0.2 nM,,,,,,,,,,,6.2 nM,
